Patent publication US10765764B2, “Probes for imaging huntingtin protein” (CHDI Foundation, Inc., priority 2015, dated 2020)
Values belong to the compound of their own block, whether it stands above or below them.

Experiments:
[1] = target: T1, Aβ aggregates (Homo sapiens, UniProt P05067); assay: Autoradiography binding to Aβ aggregates in APP/PS1 mouse brain sections; conditions: 1 nM radioligand, 12-month old heterozygous APP/PS1 mouse brain, compared with wild-type littermate
T1 construct: from tissue; host or cells: brain sections of 12 month old heterozygous APP/PS1 mice
T1 sequence (P05067 672-713 limits assumed): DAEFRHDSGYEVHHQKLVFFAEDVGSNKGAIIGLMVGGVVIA
Source text: Generation of tritiated compound 1, Method 1, for autoradiography studies was achieved by treating phenolic Compound 2 of Method 2 with tritiated methyl nosylate and a suitable base in N,N-dimethylformamide Purification by HPLC gave the tritiated compound in high radiochemical purity.
Brains were extracted from 12 month old heterozygous APP/PS1 animals (J. Neurochemistry 2009, 108, 1177-1186) and quickly frozen on dry ice in small weigh boats, wrapped with tin foil and stored in zip-lock bags at −80° C. for sectioning. Using a Leica CM3050S cryostat, 20 μm thick sections were generated representing the hippocampus (Bregma −1.34/−3.80) and the cortex/striatum (Bregma 1.54/−0.94). […]
10-[^3H]-methoxy-N-(pyridin-3-yl)-7-thia-2,5-diazatricyclo[6.4.0.0^2,6]dodeca-1(12),3,5,8,10-pentaene-4-carboxamide binding was determined in brain sections of a 12 month old APP/PS1 mouse and a WT littermate. […] Non-specific binding was determined for each radioligand in the presence of 1 μM of respective, cold ligand equivalent. […]
Quantification and Analysis: Signal intensity (cpm/mm^2) was measured for each brain section using Beta Vision+software. Specific (displaceable) binding, expressed in cpm/mm^2, was defined by the difference between total and non-specific binding and calculated as follows: (Total non-specific)/Total×100%. […]

[2] = target: T2, Q46 protein aggregates (Homo sapiens, UniProt P42858); assay: Q46 Radioligand Binding Assay (RBA), displacement of [^3H3]MK-3328; conditions: 10 nM [^3H3]MK-3328, 5 μM Q46 protein aggregates
T2 construct: fused on or other part: An N-terminal GST tag, cleaved off with thrombin before the assay to trigger aggregation
T2 sequence (P42858 with tags, fused parts or gaps with the stated changes, form open): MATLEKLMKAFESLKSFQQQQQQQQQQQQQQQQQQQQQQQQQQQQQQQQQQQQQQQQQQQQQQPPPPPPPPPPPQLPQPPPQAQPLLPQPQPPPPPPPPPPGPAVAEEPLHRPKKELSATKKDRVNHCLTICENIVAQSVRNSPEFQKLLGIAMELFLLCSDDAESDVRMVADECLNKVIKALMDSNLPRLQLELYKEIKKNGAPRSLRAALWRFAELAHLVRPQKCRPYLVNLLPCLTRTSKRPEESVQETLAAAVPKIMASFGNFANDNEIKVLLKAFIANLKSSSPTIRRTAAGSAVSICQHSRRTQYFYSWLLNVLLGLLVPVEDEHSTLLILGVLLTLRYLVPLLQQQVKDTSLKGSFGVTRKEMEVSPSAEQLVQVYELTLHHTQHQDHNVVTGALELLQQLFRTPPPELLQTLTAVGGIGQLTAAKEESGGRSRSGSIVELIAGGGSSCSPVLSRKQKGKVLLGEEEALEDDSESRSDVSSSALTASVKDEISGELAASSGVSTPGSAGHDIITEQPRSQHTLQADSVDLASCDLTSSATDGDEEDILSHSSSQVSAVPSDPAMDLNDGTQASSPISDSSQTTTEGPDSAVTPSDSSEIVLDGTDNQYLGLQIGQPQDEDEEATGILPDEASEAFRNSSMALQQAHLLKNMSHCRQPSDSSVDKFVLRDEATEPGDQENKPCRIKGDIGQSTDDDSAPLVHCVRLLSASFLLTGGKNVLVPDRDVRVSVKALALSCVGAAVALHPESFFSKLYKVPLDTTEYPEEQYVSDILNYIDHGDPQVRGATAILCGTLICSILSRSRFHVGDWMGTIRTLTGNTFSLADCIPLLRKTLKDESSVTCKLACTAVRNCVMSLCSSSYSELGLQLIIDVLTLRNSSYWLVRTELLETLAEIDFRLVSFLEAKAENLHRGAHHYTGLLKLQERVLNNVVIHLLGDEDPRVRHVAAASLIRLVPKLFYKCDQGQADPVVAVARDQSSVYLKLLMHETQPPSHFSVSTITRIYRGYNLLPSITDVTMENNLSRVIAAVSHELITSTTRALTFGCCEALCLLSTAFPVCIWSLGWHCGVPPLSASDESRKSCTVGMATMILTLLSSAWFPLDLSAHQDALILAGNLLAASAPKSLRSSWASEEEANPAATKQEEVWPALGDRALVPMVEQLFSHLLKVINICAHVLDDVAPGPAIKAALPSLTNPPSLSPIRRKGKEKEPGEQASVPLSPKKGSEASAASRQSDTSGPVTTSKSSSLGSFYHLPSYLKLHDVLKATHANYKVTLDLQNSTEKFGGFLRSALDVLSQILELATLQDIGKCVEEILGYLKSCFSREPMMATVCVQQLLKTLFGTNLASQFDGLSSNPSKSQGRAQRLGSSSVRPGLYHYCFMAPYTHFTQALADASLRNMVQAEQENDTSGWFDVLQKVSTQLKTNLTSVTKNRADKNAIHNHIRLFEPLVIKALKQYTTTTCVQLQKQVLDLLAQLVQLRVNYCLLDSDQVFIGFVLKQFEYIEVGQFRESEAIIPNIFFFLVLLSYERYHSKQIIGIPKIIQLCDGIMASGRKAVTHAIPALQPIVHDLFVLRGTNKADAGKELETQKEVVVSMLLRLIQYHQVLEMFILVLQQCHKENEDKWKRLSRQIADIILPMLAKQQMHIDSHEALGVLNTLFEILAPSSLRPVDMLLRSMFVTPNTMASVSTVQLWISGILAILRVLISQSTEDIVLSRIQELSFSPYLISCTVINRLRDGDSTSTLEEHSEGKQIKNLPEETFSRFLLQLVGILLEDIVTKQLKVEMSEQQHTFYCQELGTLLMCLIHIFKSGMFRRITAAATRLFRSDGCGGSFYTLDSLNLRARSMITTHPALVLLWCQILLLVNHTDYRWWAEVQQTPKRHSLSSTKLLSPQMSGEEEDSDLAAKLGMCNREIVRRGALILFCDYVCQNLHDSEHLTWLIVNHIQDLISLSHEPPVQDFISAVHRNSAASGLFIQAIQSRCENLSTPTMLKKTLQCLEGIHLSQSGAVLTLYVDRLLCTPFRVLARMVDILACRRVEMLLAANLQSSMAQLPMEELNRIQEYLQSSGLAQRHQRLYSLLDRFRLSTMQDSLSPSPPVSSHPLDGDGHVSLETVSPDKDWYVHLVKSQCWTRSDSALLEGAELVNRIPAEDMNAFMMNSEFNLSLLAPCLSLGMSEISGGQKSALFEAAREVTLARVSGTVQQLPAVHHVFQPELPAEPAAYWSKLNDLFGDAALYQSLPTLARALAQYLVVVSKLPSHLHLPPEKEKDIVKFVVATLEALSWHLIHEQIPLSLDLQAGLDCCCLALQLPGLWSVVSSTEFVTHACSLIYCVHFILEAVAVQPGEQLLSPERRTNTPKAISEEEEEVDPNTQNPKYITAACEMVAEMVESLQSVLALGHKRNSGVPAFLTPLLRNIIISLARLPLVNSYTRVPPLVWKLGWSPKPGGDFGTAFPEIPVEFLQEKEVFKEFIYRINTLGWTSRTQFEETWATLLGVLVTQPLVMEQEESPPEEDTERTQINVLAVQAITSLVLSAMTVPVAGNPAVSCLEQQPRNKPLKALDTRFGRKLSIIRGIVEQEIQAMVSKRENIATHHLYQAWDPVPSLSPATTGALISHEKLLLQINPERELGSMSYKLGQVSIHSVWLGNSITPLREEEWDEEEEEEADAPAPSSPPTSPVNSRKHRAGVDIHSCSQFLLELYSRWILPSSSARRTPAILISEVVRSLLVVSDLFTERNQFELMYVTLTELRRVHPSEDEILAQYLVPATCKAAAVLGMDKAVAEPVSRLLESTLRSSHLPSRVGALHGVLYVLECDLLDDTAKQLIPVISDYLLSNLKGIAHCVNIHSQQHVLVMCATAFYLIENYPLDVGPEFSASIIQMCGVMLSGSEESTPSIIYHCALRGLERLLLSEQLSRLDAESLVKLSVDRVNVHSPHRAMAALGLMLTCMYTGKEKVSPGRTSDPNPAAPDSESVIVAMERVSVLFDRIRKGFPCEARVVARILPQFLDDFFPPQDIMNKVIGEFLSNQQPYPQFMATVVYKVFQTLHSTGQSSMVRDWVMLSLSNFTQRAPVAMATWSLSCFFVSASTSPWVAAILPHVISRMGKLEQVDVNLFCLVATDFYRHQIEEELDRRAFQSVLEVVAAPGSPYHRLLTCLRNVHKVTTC
Description: For radioligand binding assays (RBA) GST-Q46 protein was generated based on a previous publication (Scherzinger et al. Cell, Vol. 90, 549-558, Aug. 8, 1997). For experiments 33 μM GST-Q46 was incubated with 150 μg/mL thrombin in assay buffer (150 mM NaCl, 50 mM Tris pH 8.0) and 2 mM CaCl2 for 16 hours at 37° C. Aggregated Q46 was pelleted by centrifugation for 5 minutes at 13,000 rpm in a bench top centrifuge and re-dissolved in the same volume of assay buffer. Test compounds were prepared by titration in DMSO at 11 concentrations from 33 μM to 1 nM. For the RBA, Q46 protein aggregates and test compounds were pre-incubated in assay buffer for 20 minutes at room temperature, in 140 μL/well in a 96-well plate (pp, round bottom). Then, ligand was added in 10 μL/well and incubated for 60 minutes at 37° C. Final assay concentrations were 1 μM to 30 pM test compound, 5 μM Q46 protein (equivalent monomer concentration) and 10 nM ligand [^3H3]MK-3328 (Harrision et al., ACS Med. Chem. Lett., 2 (2011), pp 498-502). Samples were transferred onto GF/B filter plates and washed 2× with 200 μL PBS using a Filtermate Harvester. After drying filter plates for 1 hour at 37° C., the back of the plates was sealed with foil and 30 μl/well scintillation fluid (Packard MicroScint 40) was added, incubated for incubated for 15 minutes in the dark and counted in a TopCount reader. For analysis, replicate data from independent assay plates were normalized towards 0% and 100% inhibition using control wells of vehicle (0% inhibition) and 3 μM unlabelled MK-3328 (100% inhibition). IC50 values were determined with a sigmoidal inhibition model with four variables (top, bottom, slope, IC50) in a global fit using the normalized replicate data.

[3] = test system: mHTT aggregates; assay: Autoradiography of mHTT aggregates in R6/2 mouse brain; type: binding; conditions: 0.5 nM, 10 week old R6/2 mouse brain, compared with wild-type littermate
[4] = test system: recombinant tau and amyloid β1-42 (Aβ1-42) aggregates; conditions: recombinant tau and Aβ1-42 aggregates; cited from earlier work
[5] = test system: NFT in sections of AD brain tissue; conditions: in vitro autoradiography and fluorescent staining; cited from earlier work
[6] = test system: zQ175 knock-in mice (cortex, hippocampus, striatum, cerebellum); assay: In vivo PET imaging in a knock-in model of Huntington's disease; set-up: species or system mouse; conditions: for % SUV: Mean ± SD
Description: ^11C-labeled Compound 1 of Method 1 was evaluated for its ability to penetrate the central nervous system of mice following systemic administration, and its binding to the cerebellum, striatum, hippocampus, and cortex was quantitated. Three groups of animals were compared: wild-type, and mice that were heterozygous or homozygous for the zQ175 knock-in allele. (Menalled L. B. et al. Comprehensive behavioral and molecular characterization of a new knock-in mouse model of Huntington's disease: zQ175. PloS One 2012, 7, e49838). Forty-eight nine months old animals (16 WT, 16 heterozygous and 16 homozygous zQ175) were obtained from The Jackson Laboratory, USA. The animals were housed at the animal department of Karolinska University Hospital in a temperature (±21° C.) and humidity (±40%) controlled environment on a 12 hour light/dark cycle (lights on 7:00 AM) with access to food and water ad libitum. Animals were allowed at least one week to habituate to the animal department before the start of the imaging sessions. All experiments were conducted during the light phase of the cycle.
Animals were anesthetized with inhalation of isoflurane (4-5% isoflurane in oxygen). After induction of anesthesia, the isoflurane concentration was lowered to 1.5-2% in 50/50 air/oxygen and the animals were positioned in the scanner in a designated mouse bed. A cannula was inserted in the tail vein through which the radioligand was administered. A 63-minute dynamic PET scan was initiated immediately upon intravenous injection of the radioligand. Upon completion of the imaging sessions, each animal was returned to its cage.
The acquired list mode data, was reconstructed into 25 timeframes (63 minute scan=4×10 s, 4×20 s, 4×60 s, 7×180 s, 6×360 s). The image reconstruction was made with a fully 3-dimensional maximum-likelihood expectation maximization algorithm (MLEM) with 20 iterations, without scatter and attenuation correction. The reconstructed dynamic PET images were co-registered to an inbuilt mouse MRI template available in PMOD, which also incorporates volumes of interest (VOI's) sets (PMOD Technologies Ltd., Zurich, Switzerland). With the help of these VOI sets, decay corrected time activity curves (TAC) were generated. The regional brain uptake values were expressed as percent standard uptake value (% SUV), which normalizes for injected radioactivity and body weight. In addition, the area under the curve (AUC) was calculated. The selected regions of interest (ROI) were: cortex, hippocampus, striatum and cerebellum.
The average % SUV and AUC values for the ^11C-labeled Compound 1 of Method 1 in the four brain regions, for the three groups of mice, are shown in Table 23. […] FIG. 3 presents the AUC values for the three groups of animals in the four regions of the brain.

visibility of Aβ aggregates in brain sections [1]: Aβ aggregates are visible
Compound: [3H]C([3H])([3H])Oc1ccc2c(c1)sc1nc(C(=O)Nc3cccnc3)cn12 [10-[^3H]-methoxy-N-(pyridin-3-yl)-7-thia-2,5-diazatricyclo[6.4.0.0^2,6]dodeca-1(12),3,5,8,10-pentaene-4-carboxamide]

IC50 [2]: < 100 nM
Compound: COc1ccc2c(c1)sc1nc(C(=O)Nc3ccc(=O)n(C)n3)cn12 [10-methoxy-N-(1-methyl-6-oxo-1,6-dihydropyridazin-3-yl)-7-thia-2,5-diazatricyclo[6.4.0.0^2,6]dodeca-1(12),3,5,8,10-pentaene-4-carboxamide]
visibility of mHTT aggregates in brain sections [3]: mHTT aggregates are visible

IC50 [2]: < 100 nM
Compound: COc1ccc2c(c1)sc1nc(C(=O)Nc3ccc(-n4ccnc4)nc3)cn12 [N-[6-(1H-imidazol-1-yl)pyridin-3-yl]-10-methoxy-7-thia-2,5-diazatricyclo[6.4.0.0^2,6]dodeca-1(12),3,5,8,10-pentaene-4-carboxamide]

IC50 [2]: < 100 nM
Compound: COCCOc1ccc(NC(=O)c2ccn3c(n2)nc2ccccc23)cn1 [N-[6-(2-methoxyethoxy)pyridin-3-yl]-1,8,10-triazatricyclo[7.4.0.0^2,7]trideca-2(7),3,5,8,10,12-hexaene-11-carboxamide]

IC50 [2]: < 100 nM
Compound: CNC(=O)c1ccc(NC(=O)c2ccn3c(n2)nc2ccccc23)cn1 [N-[6-(methylcarbamoyl)pyridin-3-yl]-1,8,10-triazatricyclo[7.4.0.0^2,7]trideca-2(7),3,5,8,10,12-hexaene-11-carboxamide]

Compound: CN(C)c1ccc(/C=C/c2nc3ccc(I)cc3[nH]2)cc1 [SBIM-3, 4-[(E)-2-(6-iodo-1H-benzimidazol-2-yl)ethenyl]-N,N-dimethylaniline]
ratio of Kd values (affinity for tau aggregates vs Aβ1-42 aggregates) [4]: 2.73
binding to NFT in sections of AD brain tissue [5]: bound NFT

% SUV ([6]; Cerebellum, WT mice (n = 7)): 74.1 ± 7.1 % SUV
% SUV ([6]; Cerebellum, het zQ175 mice (n = 6)): 80.5 ± 6.5 % SUV
% SUV ([6]; Cerebellum, hom zQ175 mice (n = 8)): 92.3 ± 11.3 % SUV
% SUV ([6]; Cortex, WT mice (n = 7)): 67.1 ± 5.7 % SUV
% SUV ([6]; Cortex, het zQ175 mice (n = 6)): 73.4 ± 5.1 % SUV
% SUV ([6]; Cortex, hom zQ175 mice (n = 8)): 93.1 ± 9.6 % SUV
% SUV ([6]; Hippocampus, WT mice (n = 7)): 73.3 ± 6.5 % SUV
% SUV ([6]; Hippocampus, het zQ175 mice (n = 6)): 82.0 ± 6.3 % SUV
% SUV ([6]; Hippocampus, hom zQ175 mice (n = 8)): 107.1 ± 10.8 % SUV
% SUV ([6]; Striatum, WT mice (n = 7)): 71.9 ± 6.7 % SUV
% SUV ([6]; Striatum, het zQ175 mice (n = 6)): 82.7 ± 7.0 % SUV
% SUV ([6]; Striatum, hom zQ175 mice (n = 8)): 107.6 ± 9.6 % SUV
Compound: [11CH3]Oc1ccc2c(c1)sc1nc(C(=O)Nc3cccnc3)cn12 [^11C-labeled Compound 1 of Method 1, 10-[^11C]-methoxy-N-(pyridin-3-yl)-7-thia-2,5-diazatricyclo[6.4.0.0^2,6]dodeca-1(12),3,5,8,10-pentaene-4-carboxamide]
binding of the radioligand relative to wild type ([6]; all four brain regions, mice homozygous for the zQ175 allele): Increased binding of the radioligand, relative to wild type
